Measured values: ChEMBL document CHEMBL5442175, “EUbOPEN Chemogenomics Library - PDSP Secondary Binding” (2024)

Columns and labels:
[1] = molecular target: T1, Alpha-2C adrenergic receptor (Homo sapiens, UniProt P18825); assay: (§1) PDSP Secondary Binding target: ADRA2C - Compounds are tested at 10 uM concentration, plate are incubated at room temperature in the dark for 90 minutes. Reaction are stopped by vacuum filtration onto 0.3% polyethyleneimine soaked filter mats using Filtermate harvester. Scintillation cocktail is then melted onto microwave-dried filters on a hot plate and the radio activity is counted in Microbia counter.
T1 sequence (P18825 whole entry): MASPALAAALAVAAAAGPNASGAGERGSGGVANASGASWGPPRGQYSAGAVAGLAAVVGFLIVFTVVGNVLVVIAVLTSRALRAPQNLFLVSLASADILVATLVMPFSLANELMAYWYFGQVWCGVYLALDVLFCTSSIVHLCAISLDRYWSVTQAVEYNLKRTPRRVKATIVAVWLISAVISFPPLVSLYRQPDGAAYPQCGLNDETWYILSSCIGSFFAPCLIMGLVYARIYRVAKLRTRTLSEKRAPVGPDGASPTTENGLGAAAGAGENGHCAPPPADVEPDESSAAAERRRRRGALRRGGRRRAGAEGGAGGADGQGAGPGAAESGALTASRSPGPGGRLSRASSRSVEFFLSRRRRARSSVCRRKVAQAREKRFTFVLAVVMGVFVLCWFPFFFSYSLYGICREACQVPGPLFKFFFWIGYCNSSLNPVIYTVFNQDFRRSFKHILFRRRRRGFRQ

[2] = molecular target: Sigma intracellular receptor 2 (Homo sapiens, UniProt Q5BJF2); assay: as §1, with “TMEM97” for “ADRA2C”
[3] = molecular target: Kappa-type opioid receptor (Homo sapiens, UniProt P41145); assay: as §1, with “OPRK1” for “ADRA2C”
[4] = molecular target: T2, Muscarinic acetylcholine receptor M2 (Homo sapiens, UniProt P08172); assay: as §1, with “CHRM2” for “ADRA2C”
T2 sequence (P08172 whole entry): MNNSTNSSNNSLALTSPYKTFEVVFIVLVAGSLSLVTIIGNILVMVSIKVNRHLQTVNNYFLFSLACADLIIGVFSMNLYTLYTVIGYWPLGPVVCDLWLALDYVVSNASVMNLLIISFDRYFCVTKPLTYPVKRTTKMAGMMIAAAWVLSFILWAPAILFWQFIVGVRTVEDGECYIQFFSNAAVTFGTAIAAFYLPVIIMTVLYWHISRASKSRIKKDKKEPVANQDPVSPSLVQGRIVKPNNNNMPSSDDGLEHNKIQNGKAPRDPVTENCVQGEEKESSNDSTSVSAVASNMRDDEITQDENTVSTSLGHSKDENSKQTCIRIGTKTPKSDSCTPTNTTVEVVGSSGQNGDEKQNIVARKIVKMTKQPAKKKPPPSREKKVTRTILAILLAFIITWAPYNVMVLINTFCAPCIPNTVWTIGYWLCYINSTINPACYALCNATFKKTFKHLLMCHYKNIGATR

[5] = molecular target: T3, Muscarinic acetylcholine receptor M5 (Homo sapiens, UniProt P08912); assay: as §1, with “CHRM5” for “ADRA2C”
T3 sequence (P08912 whole entry): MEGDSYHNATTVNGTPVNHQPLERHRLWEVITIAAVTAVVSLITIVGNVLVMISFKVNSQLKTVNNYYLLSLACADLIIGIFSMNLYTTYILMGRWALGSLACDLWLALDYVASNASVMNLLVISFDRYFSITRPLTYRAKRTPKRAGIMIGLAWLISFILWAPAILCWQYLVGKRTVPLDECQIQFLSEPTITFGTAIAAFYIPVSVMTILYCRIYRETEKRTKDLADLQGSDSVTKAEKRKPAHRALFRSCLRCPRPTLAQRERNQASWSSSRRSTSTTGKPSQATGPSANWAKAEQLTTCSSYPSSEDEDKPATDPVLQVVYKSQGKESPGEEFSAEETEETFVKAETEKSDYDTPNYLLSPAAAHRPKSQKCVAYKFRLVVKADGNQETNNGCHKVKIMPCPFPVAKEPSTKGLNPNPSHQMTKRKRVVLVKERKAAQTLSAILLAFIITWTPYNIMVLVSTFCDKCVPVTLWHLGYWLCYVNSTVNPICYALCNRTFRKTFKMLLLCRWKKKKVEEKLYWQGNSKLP

Histamine H3 receptor = Histamine H3 receptor (Homo sapiens, UniProt Q9Y5N1); assay: as §1, with “HRH3” for “ADRA2C”
[6] = molecular target: Sigma non-opioid intracellular receptor 1 (Homo sapiens, UniProt Q99720); assay: as §1, with “SIGMAR1” for “ADRA2C”
[7] = molecular target: T4, 5-hydroxytryptamine receptor 3A (Homo sapiens, UniProt P46098); assay: as §1, with “HTR3A” for “ADRA2C”
T4 sequence (P46098 whole entry): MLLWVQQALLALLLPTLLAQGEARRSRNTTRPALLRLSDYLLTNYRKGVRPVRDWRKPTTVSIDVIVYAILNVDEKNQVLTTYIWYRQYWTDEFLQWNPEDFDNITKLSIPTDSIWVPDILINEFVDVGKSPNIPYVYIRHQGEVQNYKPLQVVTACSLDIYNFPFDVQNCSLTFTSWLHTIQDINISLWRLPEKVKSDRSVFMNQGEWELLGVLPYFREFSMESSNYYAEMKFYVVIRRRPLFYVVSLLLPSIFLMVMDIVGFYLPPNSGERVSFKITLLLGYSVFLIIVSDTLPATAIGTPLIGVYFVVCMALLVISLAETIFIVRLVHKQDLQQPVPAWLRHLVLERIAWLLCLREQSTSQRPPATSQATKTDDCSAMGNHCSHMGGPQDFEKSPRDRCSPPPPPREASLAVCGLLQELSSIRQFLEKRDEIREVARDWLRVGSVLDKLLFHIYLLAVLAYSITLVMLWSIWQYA

[8] = molecular target: T5, Alpha-2A adrenergic receptor (Homo sapiens, UniProt P08913); assay: as §1, with “ADRA2A” for “ADRA2C”
T5 sequence (P08913 whole entry): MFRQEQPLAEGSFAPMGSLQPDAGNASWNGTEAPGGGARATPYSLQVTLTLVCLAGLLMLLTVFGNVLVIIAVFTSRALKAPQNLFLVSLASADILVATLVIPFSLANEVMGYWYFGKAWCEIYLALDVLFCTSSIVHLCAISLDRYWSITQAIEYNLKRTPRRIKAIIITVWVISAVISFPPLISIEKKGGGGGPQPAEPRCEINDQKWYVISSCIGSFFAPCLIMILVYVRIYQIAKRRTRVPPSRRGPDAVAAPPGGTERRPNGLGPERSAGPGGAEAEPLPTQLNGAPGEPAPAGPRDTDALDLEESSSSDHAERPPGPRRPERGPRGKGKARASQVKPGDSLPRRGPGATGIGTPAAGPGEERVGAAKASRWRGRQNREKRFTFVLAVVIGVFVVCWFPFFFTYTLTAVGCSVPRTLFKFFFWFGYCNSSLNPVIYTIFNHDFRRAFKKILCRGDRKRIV

[9] = molecular target: 5-hydroxytryptamine receptor 1B (Homo sapiens, UniProt P28222); assay: as §1, with “HTR1B” for “ADRA2C”
[10] = molecular target: 5-hydroxytryptamine receptor 7 (Homo sapiens, UniProt P34969); assay: as §1, with “HTR7” for “ADRA2C”
[11] = molecular target: T6, Alpha-1A adrenergic receptor (Homo sapiens, UniProt P35348); assay: as §1, with “ADRA1A” for “ADRA2C”
T6 sequence (P35348 whole entry): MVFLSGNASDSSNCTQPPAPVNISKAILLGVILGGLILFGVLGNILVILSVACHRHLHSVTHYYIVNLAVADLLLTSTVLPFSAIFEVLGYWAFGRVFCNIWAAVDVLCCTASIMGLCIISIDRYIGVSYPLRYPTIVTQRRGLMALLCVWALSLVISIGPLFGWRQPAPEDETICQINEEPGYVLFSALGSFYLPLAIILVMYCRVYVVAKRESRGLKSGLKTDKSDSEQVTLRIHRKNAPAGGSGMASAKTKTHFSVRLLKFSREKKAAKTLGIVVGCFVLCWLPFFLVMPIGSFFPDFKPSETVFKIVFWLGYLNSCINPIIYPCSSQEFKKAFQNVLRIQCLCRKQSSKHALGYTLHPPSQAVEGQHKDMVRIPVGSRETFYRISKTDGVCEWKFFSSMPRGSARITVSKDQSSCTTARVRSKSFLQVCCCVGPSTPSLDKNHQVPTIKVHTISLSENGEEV

[12] = molecular target: T7, Alpha-1B adrenergic receptor (Homo sapiens, UniProt P35368); assay: as §1, with “ADRA1B” for “ADRA2C”
T7 sequence (P35368 whole entry): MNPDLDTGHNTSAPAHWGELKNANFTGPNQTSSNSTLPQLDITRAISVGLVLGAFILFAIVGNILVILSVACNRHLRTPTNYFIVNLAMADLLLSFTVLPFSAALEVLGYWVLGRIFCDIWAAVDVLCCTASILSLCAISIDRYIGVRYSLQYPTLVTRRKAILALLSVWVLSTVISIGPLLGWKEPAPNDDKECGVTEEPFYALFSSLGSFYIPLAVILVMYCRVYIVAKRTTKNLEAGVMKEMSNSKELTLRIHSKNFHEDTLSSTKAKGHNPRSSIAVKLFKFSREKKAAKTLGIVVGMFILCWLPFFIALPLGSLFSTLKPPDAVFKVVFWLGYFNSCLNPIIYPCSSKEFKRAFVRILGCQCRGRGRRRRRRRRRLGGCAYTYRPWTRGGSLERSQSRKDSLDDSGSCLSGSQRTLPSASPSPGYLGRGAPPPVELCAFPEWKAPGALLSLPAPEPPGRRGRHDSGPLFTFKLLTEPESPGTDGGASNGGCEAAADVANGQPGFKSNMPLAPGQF

[13] = molecular target: 5-hydroxytryptamine receptor 2A (Homo sapiens, UniProt P28223); assay: as §1, with “HTR2A” for “ADRA2C”
[14] = molecular target: Sodium-dependent dopamine transporter (Homo sapiens, UniProt Q01959); assay: as §1, with “SLC6A3” for “ADRA2C”
[15] = molecular target: 5-hydroxytryptamine receptor 1D (Homo sapiens, UniProt P28221); assay: as §1, with “HTR1D” for “ADRA2C”
[16] = molecular target: Sodium-dependent noradrenaline transporter (Homo sapiens, UniProt P23975); assay: as §1, with “SLC6A2” for “ADRA2C”
Histamine H1 receptor = Histamine H1 receptor (Homo sapiens, UniProt P35367); assay: as §1, with “HRH1” for “ADRA2C”
[17] = molecular target: T8, Muscarinic acetylcholine receptor M1 (Homo sapiens, UniProt P11229); assay: as §1, with “CHRM1” for “ADRA2C”
T8 sequence (P11229 whole entry): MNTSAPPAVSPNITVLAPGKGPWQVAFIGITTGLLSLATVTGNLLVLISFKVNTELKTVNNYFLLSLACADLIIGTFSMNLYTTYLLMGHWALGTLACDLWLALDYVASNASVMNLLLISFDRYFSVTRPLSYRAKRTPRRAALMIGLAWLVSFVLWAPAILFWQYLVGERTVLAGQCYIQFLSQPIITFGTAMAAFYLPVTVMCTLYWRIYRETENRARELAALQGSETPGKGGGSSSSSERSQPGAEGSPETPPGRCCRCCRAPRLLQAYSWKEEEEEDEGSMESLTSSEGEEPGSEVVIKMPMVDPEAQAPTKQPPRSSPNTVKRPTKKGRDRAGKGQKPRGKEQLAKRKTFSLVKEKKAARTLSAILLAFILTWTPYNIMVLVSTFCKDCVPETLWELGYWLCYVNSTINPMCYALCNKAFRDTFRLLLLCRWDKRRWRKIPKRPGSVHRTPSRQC

Sequence of Histamine H3 receptor (Q9Y5N1 whole entry): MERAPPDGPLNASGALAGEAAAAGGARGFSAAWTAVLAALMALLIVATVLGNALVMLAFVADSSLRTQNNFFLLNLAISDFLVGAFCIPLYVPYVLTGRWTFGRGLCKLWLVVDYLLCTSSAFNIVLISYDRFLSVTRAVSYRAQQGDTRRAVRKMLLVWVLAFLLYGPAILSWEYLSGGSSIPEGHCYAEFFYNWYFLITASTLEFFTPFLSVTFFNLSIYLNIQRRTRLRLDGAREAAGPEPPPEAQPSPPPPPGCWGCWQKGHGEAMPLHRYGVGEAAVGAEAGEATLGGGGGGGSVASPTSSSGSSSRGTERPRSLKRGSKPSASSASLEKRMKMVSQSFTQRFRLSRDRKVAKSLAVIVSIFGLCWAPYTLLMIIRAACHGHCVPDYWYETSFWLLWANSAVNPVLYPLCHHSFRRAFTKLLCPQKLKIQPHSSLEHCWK
Sequence of Sigma intracellular receptor 2 (Q5BJF2 whole entry): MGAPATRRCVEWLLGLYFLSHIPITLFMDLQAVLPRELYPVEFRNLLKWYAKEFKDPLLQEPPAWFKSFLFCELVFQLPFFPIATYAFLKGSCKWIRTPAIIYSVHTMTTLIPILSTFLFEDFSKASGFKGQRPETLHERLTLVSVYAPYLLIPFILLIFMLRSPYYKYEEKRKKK
Sequence of Sigma non-opioid intracellular receptor 1 (Q99720 whole entry): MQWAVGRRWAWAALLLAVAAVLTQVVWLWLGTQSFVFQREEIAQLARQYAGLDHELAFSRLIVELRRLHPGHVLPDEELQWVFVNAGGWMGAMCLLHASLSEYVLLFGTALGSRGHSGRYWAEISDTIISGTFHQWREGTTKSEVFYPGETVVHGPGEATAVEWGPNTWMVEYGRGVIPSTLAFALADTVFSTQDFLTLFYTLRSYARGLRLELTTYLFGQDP
Sequence of Sodium-dependent dopamine transporter (Q01959 whole entry): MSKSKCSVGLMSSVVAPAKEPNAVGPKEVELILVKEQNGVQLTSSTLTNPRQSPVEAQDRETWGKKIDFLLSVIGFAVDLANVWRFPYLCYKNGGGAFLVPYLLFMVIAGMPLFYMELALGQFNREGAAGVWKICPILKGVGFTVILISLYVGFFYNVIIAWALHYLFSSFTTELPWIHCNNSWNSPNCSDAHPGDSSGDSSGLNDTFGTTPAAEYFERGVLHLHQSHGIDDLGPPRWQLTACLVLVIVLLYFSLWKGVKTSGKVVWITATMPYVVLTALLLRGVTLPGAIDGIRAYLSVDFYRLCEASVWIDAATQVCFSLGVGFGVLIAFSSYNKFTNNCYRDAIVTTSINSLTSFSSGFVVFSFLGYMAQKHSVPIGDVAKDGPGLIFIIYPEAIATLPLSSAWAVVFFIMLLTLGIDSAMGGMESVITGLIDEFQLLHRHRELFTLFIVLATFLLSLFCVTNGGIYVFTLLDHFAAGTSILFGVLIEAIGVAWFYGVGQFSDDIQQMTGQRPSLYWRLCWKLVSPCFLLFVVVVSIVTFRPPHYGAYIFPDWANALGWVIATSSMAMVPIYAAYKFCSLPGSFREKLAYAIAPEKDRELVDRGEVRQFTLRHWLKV
Sequence of 5-hydroxytryptamine receptor 1B (P28222 whole entry): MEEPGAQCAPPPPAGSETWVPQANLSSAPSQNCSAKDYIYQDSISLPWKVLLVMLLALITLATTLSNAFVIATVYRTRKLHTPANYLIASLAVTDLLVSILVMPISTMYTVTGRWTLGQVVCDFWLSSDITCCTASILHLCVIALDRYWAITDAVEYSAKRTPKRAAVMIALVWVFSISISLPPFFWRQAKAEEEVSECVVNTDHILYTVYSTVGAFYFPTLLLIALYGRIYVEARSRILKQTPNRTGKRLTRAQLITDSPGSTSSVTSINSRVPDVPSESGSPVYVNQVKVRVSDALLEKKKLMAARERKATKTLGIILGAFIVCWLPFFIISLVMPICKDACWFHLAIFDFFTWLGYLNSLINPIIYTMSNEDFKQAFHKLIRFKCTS
Sequence of 5-hydroxytryptamine receptor 1D (P28221 whole entry): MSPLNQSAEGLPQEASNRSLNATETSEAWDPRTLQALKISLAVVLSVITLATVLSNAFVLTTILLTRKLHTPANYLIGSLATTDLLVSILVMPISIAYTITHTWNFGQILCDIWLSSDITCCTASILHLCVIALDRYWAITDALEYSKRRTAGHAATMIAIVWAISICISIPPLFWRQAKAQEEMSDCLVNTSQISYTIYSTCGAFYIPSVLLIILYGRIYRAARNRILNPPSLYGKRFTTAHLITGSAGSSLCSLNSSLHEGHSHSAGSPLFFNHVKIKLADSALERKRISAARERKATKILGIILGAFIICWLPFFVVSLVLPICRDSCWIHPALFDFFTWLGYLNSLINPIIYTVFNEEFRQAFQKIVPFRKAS
Sequence of Sodium-dependent noradrenaline transporter (P23975 whole entry): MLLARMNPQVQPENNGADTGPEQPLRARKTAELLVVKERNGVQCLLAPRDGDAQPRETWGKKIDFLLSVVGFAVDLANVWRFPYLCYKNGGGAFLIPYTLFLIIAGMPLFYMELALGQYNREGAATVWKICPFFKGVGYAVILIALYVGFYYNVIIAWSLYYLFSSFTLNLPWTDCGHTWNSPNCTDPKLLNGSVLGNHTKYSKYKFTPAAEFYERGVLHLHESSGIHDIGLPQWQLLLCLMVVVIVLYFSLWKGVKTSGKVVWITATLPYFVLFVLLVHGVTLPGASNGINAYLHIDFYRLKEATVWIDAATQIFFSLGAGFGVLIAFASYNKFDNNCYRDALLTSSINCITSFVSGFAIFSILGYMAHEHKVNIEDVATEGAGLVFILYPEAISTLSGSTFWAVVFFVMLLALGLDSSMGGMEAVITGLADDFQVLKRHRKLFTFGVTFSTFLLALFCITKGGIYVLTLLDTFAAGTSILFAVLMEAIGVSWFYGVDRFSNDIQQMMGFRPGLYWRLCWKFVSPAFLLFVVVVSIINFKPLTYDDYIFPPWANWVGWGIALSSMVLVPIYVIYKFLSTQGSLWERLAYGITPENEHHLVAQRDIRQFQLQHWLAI
Sequence of Histamine H1 receptor (P35367 whole entry): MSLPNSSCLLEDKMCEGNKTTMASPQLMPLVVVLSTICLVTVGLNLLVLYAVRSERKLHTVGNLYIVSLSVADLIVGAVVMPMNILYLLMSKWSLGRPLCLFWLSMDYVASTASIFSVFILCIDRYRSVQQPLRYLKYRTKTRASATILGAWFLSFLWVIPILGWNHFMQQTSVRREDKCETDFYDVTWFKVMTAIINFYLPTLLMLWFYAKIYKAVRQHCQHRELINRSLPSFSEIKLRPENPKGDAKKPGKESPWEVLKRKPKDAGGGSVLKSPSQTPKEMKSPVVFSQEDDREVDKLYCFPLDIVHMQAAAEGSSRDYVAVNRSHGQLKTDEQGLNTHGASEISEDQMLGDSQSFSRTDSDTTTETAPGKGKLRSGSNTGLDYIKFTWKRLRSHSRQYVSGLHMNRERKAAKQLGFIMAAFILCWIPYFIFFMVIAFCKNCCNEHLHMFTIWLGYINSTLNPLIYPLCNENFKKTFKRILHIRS
Sequence of 5-hydroxytryptamine receptor 2A (P28223 whole entry): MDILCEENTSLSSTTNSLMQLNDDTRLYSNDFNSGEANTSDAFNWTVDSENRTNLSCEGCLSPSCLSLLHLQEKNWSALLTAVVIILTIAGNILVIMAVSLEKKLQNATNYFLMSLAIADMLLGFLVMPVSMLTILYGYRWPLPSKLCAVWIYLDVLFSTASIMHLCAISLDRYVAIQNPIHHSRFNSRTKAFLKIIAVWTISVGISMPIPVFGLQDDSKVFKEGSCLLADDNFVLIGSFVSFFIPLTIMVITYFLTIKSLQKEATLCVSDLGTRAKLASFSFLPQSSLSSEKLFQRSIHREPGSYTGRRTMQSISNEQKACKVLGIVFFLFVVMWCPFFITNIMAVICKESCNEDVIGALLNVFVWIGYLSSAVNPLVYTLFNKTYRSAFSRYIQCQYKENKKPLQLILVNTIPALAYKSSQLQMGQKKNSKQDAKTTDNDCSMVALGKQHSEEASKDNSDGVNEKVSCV
Sequence of Kappa-type opioid receptor (P41145 whole entry): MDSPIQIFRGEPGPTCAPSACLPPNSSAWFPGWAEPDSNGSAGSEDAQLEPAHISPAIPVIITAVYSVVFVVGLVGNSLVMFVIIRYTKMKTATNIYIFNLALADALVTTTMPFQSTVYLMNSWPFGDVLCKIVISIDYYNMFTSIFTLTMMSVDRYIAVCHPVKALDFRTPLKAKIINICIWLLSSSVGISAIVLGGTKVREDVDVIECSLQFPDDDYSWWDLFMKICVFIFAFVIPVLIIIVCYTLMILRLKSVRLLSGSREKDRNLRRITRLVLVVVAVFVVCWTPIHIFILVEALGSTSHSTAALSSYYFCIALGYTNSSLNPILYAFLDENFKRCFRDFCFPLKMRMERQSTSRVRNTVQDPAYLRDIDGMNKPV
Sequence of 5-hydroxytryptamine receptor 7 (P34969 whole entry): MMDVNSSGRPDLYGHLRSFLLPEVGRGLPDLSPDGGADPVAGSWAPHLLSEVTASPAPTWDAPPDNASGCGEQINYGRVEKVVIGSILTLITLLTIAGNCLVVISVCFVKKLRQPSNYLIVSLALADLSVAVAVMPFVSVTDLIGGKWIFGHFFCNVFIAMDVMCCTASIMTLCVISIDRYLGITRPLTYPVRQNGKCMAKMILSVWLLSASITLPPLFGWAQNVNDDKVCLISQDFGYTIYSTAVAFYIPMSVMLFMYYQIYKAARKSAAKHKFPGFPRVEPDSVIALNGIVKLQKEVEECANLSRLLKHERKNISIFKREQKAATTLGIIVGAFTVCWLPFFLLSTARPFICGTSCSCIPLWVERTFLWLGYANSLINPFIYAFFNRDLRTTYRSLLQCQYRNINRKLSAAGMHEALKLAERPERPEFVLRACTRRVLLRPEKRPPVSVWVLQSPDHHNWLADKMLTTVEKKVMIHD

| Structure (SMILES) | Ki [1] [nM] | Ki [2] [nM] | Ki [3] [nM] | Ki [4] [nM] | Ki [5] [nM] | Ki (Histamine H3 receptor) [nM] | Ki [6] [nM] | Ki [7] [nM] | Ki [8] [nM] | Ki [9] [nM] | Ki [10] [nM] | Ki [11] [nM] | Ki [12] [µM] | Ki [13] [nM] | Ki [14] [nM] | Ki [15] [nM] | Ki [16] [nM] | Ki (Histamine H1 receptor) [nM] | Ki [17] [nM] |
| --- | --- | --- | --- | --- | --- | --- | --- | --- | --- | --- | --- | --- | --- | --- | --- | --- | --- | --- | --- |
| COc1ccc2cc(S(=O)(=O)N[C@H](CC(=O)N[C@H](Cc3ccc(CN4[C@H](C)CCC[C@@H]4C)cc3)C(=O)N(C)C(C)C)c3ccc4c(c3)OCO4)ccc2c1 | 1260 | 63.4 | 195 | 528 | 841 | 645 | 495 |  |  |  |  |  |  |  |  |  |  |  |  |
| NCCc1cn(S(=O)(=O)c2c(Cl)nc3sccn23)c2ccccc12 |  | 675 |  |  |  | 1980 | 1320 | 662 | 153 | 562 | 1430 | 1100 | 4.88 | 111 | 1720 | 216 | 1260 | 1650 |  |
| c1cc(CN2CCCNCCNCCCNCC2)ccc1CN1CCCNCCNCCCNCC1 [PLERIXAFOR] | 1780 |  |  | 1010 |  | 2.74 |  |  |  |  |  |  |  |  | > 10000 |  |  |  | 804 |
